{
  "source": "patent US20260227412A1",
  "about": "“USE OF IFN-I ACTIVITY AS A BIOMARKER FOR TLR INHIBITOR TREATMENT” (MERCK PATENT GMBH, priority 2022, published 2026)",
  "key": {"[1]": {"system": "TLR7/8 activation in human PBMCs by patient-derived immune complexes", "assay": "IFN-α production in healthy donor PBMCs stimulated with patient-derived immune complexes (AlphaLISA)", "assay_type": "cell-based", "details": "PBMCs pre-treated with 1 μM enpatoran for 30 minutes, immune complex 24 hours", "excerpt": "Blood sample collection: Blood samples were collected from subjects with lupus nephritis (LN), systemic lupus erythematosus (SLE), dermatomyositis (DM), polymyositis (PM), patients with inclusion body myositis (IBM) and healthy controls (HC). Blood plasma was isolated and frozen. Later, immunoglobulin G (IgG) was purified using protein A resin and the protein concentration determined.\nImmune complex formation and peripheral blood mononuclear cell (PBMC) stimulation: To generate necrotic cell lysates, human embryonic kidney 293 cells were suspended at a concentration of 50 x10^6 cells/mL in phosphate buffered saline (PBS; Gibco, Grand Island, NY). The cells were frozen at −80° C. for 10 minutes followed by thawing at 37° C. Four freeze/thaw cycles were performed. The lysate was centrifuged at 400 g for 5 minutes to separate non-lysed cells and the supernatant was collected as necrotic cell lysate.\nPBMCs were isolated from leukopacks collected from healthy donors (New York Blood Center, New York, NY) in sodium heparin tubes using Ficoll-Paque Plus (Cytiva Life Sciences, Uppsala, Sweeden). The cells were plated in 96-well U-bottom plates (4 x10^5 cells/well) in RPMI 1640 Medium (Gibco, Grand Island, NY) supplemented with 10% fetal bovine serum (FBS; Corning, Woodland, CA). […] The supernatants were collected and cytokine production was measured by AlphaLISA (PerkinElmer, Waltham, MA)."}, "[2]": {"system": "patients hospitalized with COVID-19 pneumonia", "assay": "Exploratory phase II clinical study of enpatoran in patients hospitalized with COVID-19 pneumonia (NCT04448756), time to recovery", "assay_type": "in vivo, human", "protocol": "An exploratory phase II clinical study in patients hospitalized with COVID-19 pneumonia was conducted to inter alia assess whether the TLR inhibitor enpatoran improves time to recovery (NCT04448756).\nStatistical testing was considered exploratory, and results are presented with no adjustment of type I error for multiplicity. Time to recovery was defined as time from Day 1 to first occurrence of WHO 9-point ordinal scale of ≤3 and was estimated via Kaplan-Meier (KM) analysis, presented with two-sided 95% confidence intervals (CI). The effect of each dose level compared with placebo was evaluated using a stratified log-rank test.\nBlood was collected directly in PAXgene RNA tubes from patients at baseline prior to treatment for measurement of gene expression. IFN-I activity was measured by DxTerity Diagnostics (Rancho Dominguez, California, USA), using the IFN-1 test, a commercially available chemical ligation-dependent probe amplification and gene expression test with relative quantitative analysis by capillary electrophoresis. Sample testing and analysis was performed as previously described (Kim et al., J Mol Diagn. 2015 March;17 (2): 118-27). The IFN-1 test measures the expression levels of four IFN response genes (HERC5, IFI27, IFIT1 and RSAD2), i.e. the Dx-4 IFN-I signature, relative to the expression levels of three housekeeping normalizer genes (ACTB, GAPDH and TFRC). Normalized expression values of each respective response gene were calculated per the following function: Normalized ExpressionGene i=Log2(HeightGene i)−Mean (Log2 (Normaliser Gene Height)). The IFN-I signature score was calculated by averaging the normalized expression values of the four response genes. The cut-off between high IFN-I signature and low IFN-I signature scores (−0.5), was set to the mean±2 SDs (95th percentile) of IFN-I signature scores from 281 healthy human donors. This cut-off falls within the trough of the observed bimodal distribution of IFN-I signature scores for cohorts of SLE patients.\n149 patients received either placebo (n=49), or enpatoran 50 mg (n=54)0r 100 mg (n=46) BID. Mean IFN-I signature scores (50 mg BID-0.84; 100 mg BID-0.74; placebo-0.91) and the proportion of patients with high IFN-I signature scores at baseline (50 mg BID 35%; 100 mg BID 43%; placebo 35%) were reasonably consistent across treatment groups, as reflected by Table 2: […]"}, "[3]": {"details": "subgroup with high IFN-I signature scores at baseline, 50 mg BID"}, "[4]": {"details": "subgroup with high IFN-I signature scores at baseline, 100 mg BID"}},
  "data": [
    {"smiles": "N#Cc1ccc(N2C[C@H](N)C[C@H](C(F)(F)F)C2)c2cccnc12", "note": "[enpatoran, 5-[(3R,5S)-3-amino-5-(trifluoromethyl)piperidin-1-yl]quinoline-8-carbonitrile]", "values": [
      {"measurement": "IFN-α production", "setting": "[1]", "result": "completely inhibited"},
      {"measurement": "KM-estimated cumulative recovery rate up to Day 14", "setting": "[2]; [3]", "result": 78.6, "unit": "%"},
      {"measurement": "recovery rate at Day 28", "setting": "[2]; [3]", "result": 73.3, "unit": "%"},
      {"measurement": "KM-estimated cumulative recovery rate up to Day 14", "setting": "[2]; [4]", "result": 88.2, "unit": "%"},
      {"measurement": "recovery rate at Day 28", "setting": "[2]; [4]", "result": 88.2, "unit": "%"},
      {"measurement": "recovery rate at Day 28", "setting": "[2]; subgroup with low IFN-I signature scores at baseline, 50 mg BID", "result": 100, "unit": "%"},
      {"measurement": "recovery rate at Day 28", "setting": "[2]; subgroup with low IFN-I signature scores at baseline, 100 mg BID", "result": 91.3, "unit": "%"},
      {"measurement": "primary efficacy endpoint of the time to recovery from Day 1 through Day 28", "setting": "[2]; unstratified patient populations, enpatoran 50 mg or 100 mg BID vs placebo", "result": "not met"},
      {"measurement": "recovery rate", "setting": "[2]; unstratified, Day 1 through Day 28, 50 mg BID", "result": 88.9, "unit": "%"},
      {"measurement": "recovery rate", "setting": "[2]; unstratified, Day 1 through Day 28, 100 mg BID", "result": 91.3, "unit": "%"},
      {"measurement": "median time to recovery", "setting": "[2]; unstratified, range across groups (placebo, 50 mg BID, 100 mg BID)", "result": "3.4 to 3.9", "unit": "days"}
    ]}
  ]
}
